Experimental findings from patent publication US20080075730A1, “Methods and compositions for treating biofilms” (priority 2003, published 2008) are described below.

What all share (format): cell-based
The test system of assay [1] is Pseudomonas aeruginosa PA14 wild-type. The assay is described as follows: microbe, parasite or virus in culture. The following applies: for MIC: Pseudomonas aeruginosa, read-out: MIC72 h; for differences in planktonic cell susceptibility between the different strains: wild type vs gacS^− vs SCV, log2 difference or less. Here is the method:
(§1) Antimicrobial susceptibility testing. Antibiotic, metal and biocide susceptibility tests were performed. Antimicrobials were arranged into arrays in microtitre plates that typically consisted of serial two-fold dilutions along the rows of wells (the challenge plates). The first and last wells of every row were used as sterility and growth controls, respectively. […] Biofilms were rinsed with PBS (to remove loosely adherent planktonic cells) and inserted into the challenge plates. After exposure, biofilms were rinsed once in PBS and inserted into microtitre plates containing […] of recovery medium in each well (LB broth, 5 mM GSH, 5 mM L-cys, 1% v/v tween-20). These biofilms were disrupted into the recovery medium using a sonicator, and the recovered cells were serially diluted and plated for viable cell counting. Spot plates from these experiments were incubated for a minimum of 36 h at 35° C. before enumeration. Minimum inhibitory concentration (MIC) values were determined by reading the optical density at 650 nm (OD650) of challenge plates after 72 h at 35° C. using a THERMOmax microplate reader with SOFTMAX PRO data analysis software (Molecular Devices, Sunnyvale, Calif.).
(§2) For susceptibility testing, growth-curve data were used to calibrate incubation times to produce biofilms of similar cell density. […] In this model system, planktonic cells shed from the surface of biofilms served as the inoculum for MIC determinations.

Assay [2] relates to Pseudomonas aeruginosa PA14 SCV. The assay is described as follows: MIC determination, planktonic cells shed from biofilms (MBEC P&G device). The following applies: for MIC: Pseudomonas aeruginosa, PA14, read-out: MIC72 h. Here is the method: as §1, §2
Assay [3] relates to Pseudomonas aeruginosa PA14 gacS^−. Described as above. The following applies: for MIC: Pseudomonas aeruginosa, PA14, read-out: MIC72 h. Here is the method: as §1, §2
The test system of assay [4] is Pseudomonas aeruginosa PA14 wild-type biofilms.
From the text: (§3) Biofilm formation. Biofilms were aerobically cultivated using the MBEC high-throughput (HTP) or Physiology and Genetics (P&G) device (Innovotech, Edmonton, Canada) as described in the manufacturer's instructions and by Ceri et al. (1999). To summarize, the parts of this batch culture apparatus were used in two ways. The top half of the plastic MBEC™-HTP device is a lid with 96 polystyrene pegs that also fits over a standard 96-well microtitre plate. For Biofilm growth, the bottom half was either (1) a corrugated trough that guided 22 mL of inoculum across the pegs when the device was placed on a rocker at 3.5 rocks per min (HTP format), or (2) a microtitre plate with […] of inoculum in each well that was placed on a gyrorotary shaker at 150 r.p.m. (P&G format). For either assay format, the inoculum was prepared to c. 10^7CFU/mL1 of the desired strain and the inoculated device was incubated at 35° C. and 95% relative humidity for the required time. Unless otherwise noted, all experiments utilized the MBEC P&G assay. Pegs from the devices were collected at specific time points for scanning electron microscopy and scanning confocal laser microscopy. Biofilm cell densities were evaluated by breaking pegs from the lid of the MBEC device with sterile pliers, rinsing the peg in PBS, and subsequent viable-cell counting as described above. PBS containing the […] surfactant Tween-20 (1% v/v) was used to assist in recovery of bacteria from the peg surfaces. Pegs were sonicated for 30 min in an Aquasonic model 250HT ultrasonic cleaner (VWR International, Mississauga, Canada). Samples of broth culture were collected at the same time points and viable cell counts were determined in a similar manner.
as §1, §2

Assay [5] has as its system Pseudomonas aeruginosa PA14 SCV biofilms. The assay is described as follows: Biofilm susceptibility testing (viable cell counts, log-killing, MBEC99.9). The following applies: for MBEC99.9: SCV biofilms, 2 h exposure, 3 log10 reduction in viable cells; for tolerance of SCV strain biofilms relative to the wild-type strain: ratio of MBEC99.9 values, SCV vs wild type.
From the text: as §3, §1, §2

Assay [6] concerns Pseudomonas aeruginosa PA14 gacS^− biofilms. The description is as above. The following applies: for Log-survival / No. of survivors / SCV frequency: LB broth; for Log-survival / No. of survivors / SCV frequency / MBEC99.9: 2 h exposure; for MBEC99.9: gacS^− biofilms, 3 log10 reduction in viable cells.
From the text: as §3, §1, §2

The test system is the same in assay [7]. The assay is described as follows: Frequency of SCV cells arising from 24-h biofilms exposed for 18 h. The following applies: in words. The procedure:
In an alternative set of experiments, the frequency of SCV cells arising from 24-h biofilms of P. aeruginosa PA14 gacS was evaluated. Antibiotics were diluted from stock solutions into LB broth to obtain final concentrations of […]. These were arranged in triplicate in a micro-titre plate. Biofilms were incubated in these low concentrations of antibacterials for 18 h at 35° C. and 95% relative humidity. Goat and human serum were also assayed in this array, and were kind gifts from The Life and Environmental Sciences Animal Care Facility at the University of Calgary, Department of Biological Sciences. After exposure, biofilms were treated in a manner identical to that described above.
Frequency of phenotypic variation. During the course of susceptibility assays, the proportion of SCV cells recovered from biofilms after exposure to Ag^+ or H2O2 was increased relative to the corresponding growth controls. It was queried whether this may be true for other antimicrobial agents or growth conditions. An array of clinically used antibiotics, saline, and goat and human sera were examined for an ability to select for these SCVs from 24-h biofilms of P. aeruginosa PA14 gacS. Biofilms were exposed to these agents for 18 h and each assay was performed in triplicate. Viable cell counts were determined for each exposure condition, and log-survival was determined. The proportion of SCV cells in bacterial populations recovered from these exposure conditions was calculated as the mean of the proportions from each individual trial.

The mark [8] stands for this setting: SCV, planktonic cells, OD650 after 72 h at 35° C., mean ± SD of four trials.
The mark [9] stands for this setting: gacS^−, planktonic cells, OD650 after 72 h at 35° C., mean ± SD of four trials.
Setting [10] is: wild type biofilms, 2 h exposure, 3 log10 reduction in viable cells.

Converted amounts (≈) assume the structure as drawn. Like-named read-outs stand apart in the source and are kept apart here.

Take `O=C(O)c1cn(C2CC2)c2cc(N3CCNCC3)c(F)cc2c1=O` [Ciprofloxacin]: the MIC in assay [1] (PA14, wild type, planktonic cells, OD650 after 72 h at 35° C., mean ± SD of four trials) amounted to 0.4 ± 0.2 µg/mL (≈ 1.21 µM); in assay [2] (setting [8]) it was 0.8 ± 0.4 µg/mL (≈ 2.41 µM); in assay [3] (setting [9]), 0.7 ± 0.3 µg/mL (≈ 2.11 µM). Further, the “differences in planktonic cell susceptibility between the different strains” value in assay [1] was “no significant differences”. In addition, the MBEC99.9 in assay [4] (setting [10]) stood at 0.16 ± 0 µg/mL; in assay [5] it was 0.64 ± 0.45 µg/mL; in assay [6], 0.12 ± 0.05 µg/mL. Also, the “tolerance of SCV strain biofilms relative to the wild-type strain” value in assay [5] is “approximately four”. This compound displayed a Log-survival in assay [6] (0.16 μg mL^−1) of −2.6 ± 0.8 log10 CFU peg^−1. Besides, the No. of survivors in assay [6] (0.16 μg mL^−1) stood at 2.4 ± 0.8 log10 CFU peg^−1. The SCV frequency in assay [6] (0.16 μg mL^−1) is given as 0%. The “selection for SCVs / increase of the frequency of SCV cells compared with growth controls” value in assay [7] is “in no instances”.
As for `[Cu+2]` [Cu^2+], the “differences in planktonic cell susceptibility between the different strains” value in assay [1] is “no significant differences”. In addition, the MIC72 h turned out to be 8 ± 0 mM in assay [1] (wild type, planktonic cells, OD650 after 72 h at 35° C., mean ± SD of four trials); 4 ± 0 mM in assay [2] (setting [8]); 8 ± 0 mM in assay [3] (setting [9]). Besides, the MBEC99.9 in assay [4] (setting [10]) came out at 8 ± 0 mM; in assay [5], 64 ± 0 mM; in assay [6], 7 ± 2 mM. Besides, in assay [5], the “tolerance of SCV strain biofilms relative to the wild-type strain” value is given as “eight”. Besides, in assay [6] (16 μg mL^−1), the Log-survival is reported as −0.9 ± 0.1 log10 CFU peg^−1. The same compound had a No. of survivors in assay [6] (16 μg mL^−1) of 4.2 ± 0.1 log10 CFU peg^−1. Besides, in assay [6] (16 μg mL^−1), the SCV frequency is 0%.
`OO` [H2O2, hydrogen peroxide]: the MIC in assay [1] (PA14, 72 h) was 938 µg/mL (≈ 27600 µM); in assay [2] (setting [8]), 1880 µg/mL (≈ 55100 µM); in assay [3] (setting [9]) it was 45 ± 16 µg/mL (≈ 1320 µM). In addition, the planktonic cell susceptibility entry is given as “highly resistant” in assay [2] (planktonic PA14 SCV, by comparison, in words) and “hypersensitive” in assay [3] (planktonic PA14 gacS, in words). For the same compound, the figures for the MBEC99.9 in assay [4], in assay [5] and in assay [6] were 352 ± 135 ppm, 293 ± 203 ppm and 22 ± 14 ppm, respectively. Moreover, the “biofilm survival at subMBEC99.9 concentrations relative to the wild-type strain” value in assay [5] (in words) is recorded as “increased survival”. The compound also yielded a Log-survival in assay [6] (30 μg mL^−1) of −3.8 ± 1.1 log10 CFU peg^−1. In addition, in assay [6] (30 μg mL^−1), the No. of survivors amounted to 1.2 ± 1.1 log10 CFU peg^−1. The same compound gave an SCV frequency in assay [6] (30 μg mL^−1) of 8%. Further, in assay [6] (susceptibility assays, in words), the “proportion of SCV cells recovered from biofilms after exposure, relative to growth controls” value is “increased”.
